{
  "source": "PubChem BioAssay AID1117278",
  "about": "(The Scripps Research Institute Molecular Screening Center, 2014)",
  "test_system": "P. falciparum stage V gametocytes, BacTiter-Glo ATP, 24 h",
  "test": "viability inhibitors of stage V gametocytes – luminescence, dose response (AID 1117278)",
  "note": "Activity calls are given as the source filed them. No rule for the calls is given here.",
  "data": [
    {"smiles": "O=C(C[N+]12CCC(CC1)C(OC(=O)c1ccccc1)C2)c1ccc([N+](=O)[O-])cc1", "note": "(stereo unspecified)", "values": [
      {"measurement": "IC50", "result": "> 109 µM (inactive)"}
    ]}
  ]
}
